Laboratory results reported in patent US12031897B2, “Target-locking single-molecule nanoscopy” (Memorial Sloan Kettering Cancer Center, priority 2019, dated 2024).
“Also recorded” adds a separate entry of the source.

How the values were obtained:
Assay type in all cases: cell-based, mouse
[1] = system: Sox2 foci at the Pou5f1 locus; assay: Sox2 cluster signal at Pou5f1 upon inhibition (live-cell confocal/STED scans); details: 1 μM JQ1 or 10 μM Flavopiridol
Description: Contrary to Brd4, Med22 and Cdk9, Sox2 clustering persists through transcription inhibition by either JQ1 or FVP (FIG. 8D). The differential sensitivities between factors and modes of transcription inhibition unveil a hierarchy of molecular transactions that control Pou5f1 transcription: Sox2 binding occurs upstream of Cdk9/Med22/Brd4 recruitment and accumulation of all of 4 regulatory factors occurs upstream of Pol II release into productive elongation. […] For real-time confocal and STED imaging, example implementations may program the wave generator to scan 2 μm×2 μm or 1 μm×1 μm xy areas in 0.8 sec or 0.2 sec respectively. 3D scanning was performed (via, e.g., detection system 150) by acquiring 5 xy scans while moving the stage by 0.5 μm in z between scans. TTL pulses corresponding to single-photon events from the APDs, together with the trigger pulses from the wave generator were detected using a field-programmable gate array (FPGA) data acquisition system (National Instruments, PCIe-7852R). Before imaging, cells were seeded onto 8-chamber coverglass (LabTek, 155411) coated with 5 μg/ml laminin (BioLamina LN511), in -2i media (OMG) or +2i media (NMG) and appropriate drugs. For SiR staining, cells were labeled with media containing 0.3 μM SiR-BG for 10 mins, at 37° C., followed by three washes with new media. Targeted integration of SNAP-tag in the endogenous Sox2, Cdk9, Brd4 and Med22 genes. To generate OMG or NMG SNAP-Sox2 targeted cells, OMG-1 or NMG mESCs (1×106) were transfected with 10 μg SNAP-Sox2 donor vector and 0.6 μg […] vector. 10 days after transfection, the cells were trypsinized, labeled with 0.3 μM SiR-BG for 10 mins, rinsed three times with new media, followed by immediate fluorescence-activated cell sorting (FACS). All the SiR-positive cells were collected, expanded for 2 weeks, trypsinized, labeled with SiR-BG and sorted again. Almost 100% SNAP positive pools were obtained from the second round of sorting and individual clones were picked and expanded. Homozygous clones (dubbed “OMG SNAP-Sox2 clone 8” and NMG SNAP-Sox2 clone 3'' respectively) with both Sox2 alleles correctly targeted with SNAP-tag integrations and that show SiR nuclear staining were selected for all further experiments.

[2] = system: Pol II (SiR-Rpb1) at the Pou5f1 transcription site; assay: SiR-Rpb1 (Pol II) dynamics at Pou5f1 after drug addition (target-locking); details: for Rpb1 exponential decay time from fits: Pou5f1, 10 μM flavopiridol, 10 μM triptolide or 1 μM JQ1; for Pol II signal at Pou5f1 upon transcription inhibition: paralleled by nascent RNA loss
Description: The images obtained from the Ixon3 897 detector (e.g., detection system 150) were analyzed on the fly by non-linear least-squares fitting of a 21×21 pixel ROI to a 2D Gaussian peak function implemented in LabVIEW. Axial localization was achieved either though the degree of defocus or based on astigmatism. The coordinates returned by the 2D Gaussian peak fit were passed onto a PID controller that calculated the desired position correction that was commanded to the nanopositioning stage controller. The LabVIEW application ran at sustained speeds of up to 30 frames/second. Before imaging, cells were seeded onto 8-chamber coverglass (LabTek, 155411) coated with 5 μg/ml laminin (BioLamina LN511), in −2i media (OMG) or +2i media (NMG) and appropriate drugs. For SiR staining, cells were labeled with media containing 0.3 μM SiR-BG for 10 mins, at 37° C., followed by three washes with new media. OMG-1 or NMG mESCs (1×106) were transfected with 10 μg PB007-EF1α-Flag-SNAP-Rpb1 (αAmR) and 1 μg pCMV-hyPBase vectors using Lipofectamine 2000 (Invitrogen 11668019). Cells were subjected to 3 mg/ml α-amanitin 2 days post-transfection. Individual α-amanitin-resistant colonies were picked after ˜2 weeks, expanded, labeled with SiR-BG and imaged.

[3] = system: Pou5f1 transcription site (MCP-mNeonGreen nascent RNA); assay: MCP-mNeonGreen nascent transcription at the endogenous Pou5f1 locus in mESCs (live-cell imaging); details: for MCP-mNeonGreen exponential decay time: Pou5f1, mESCs, 10 μM flavopiridol, 10 μM triptolide or 1 μM JQ1, mean±S.D.
Description: All the mESCs were cultured and maintained in +2i media with appropriate selection drugs on 0.1% gelatin-coated dishes, at 37° C. in a humidified 5% CO2 incubator. +2i media contain D-MEM (Thermo Fisher Scientific 10313021), 15% fetal bovine serum (Gemini Bio 100-500), 0.1 mM β-mercaptoethanol (Thermo Fisher Scientific 21985023), 2 mM L-alanyl-L-glutamine (Thermo Fisher Scientific 35050079), 1×MEM nonessential amino acids (Thermo Fisher Scientific 11140076), 1000 U/mL LIF (Millipore ESG1107), […] (Millipore 361559) and 1 μM PD0325901 (Axon Medichem 1408). OMG and NMG SNAP-Rpb1 cells were cultured with +2i media plus 3 μg/ml α-amanitin.
Before imaging, cells were seeded onto 8-chamber coverglass (LabTek, 155411) coated with 5 μg/ml laminin (BioLamina LN511), in −2i media (OMG) or +2i media (NMG) and appropriate drugs. For SiR staining, cells were labeled with media containing 0.3 μM SiR-BG for 10 mins, at 37° C., followed by three washes with new media.
Wide-Field Cell Imaging Experiments. Live cell imaging experiments (tdPCP-EGFP and MCP-mNeonGreen tracking). For time-lapse imaging, a z-stack of 11 frames at 1 frame/second was acquired, by stepping the sample along the z-axis using the nanopositioning stage (250 nm steps). The CCD data were analyzed using IDL 6.4 (ITTVIS). Maximum projection images were calculated for each stack, and the resulting 11 sec/frame movie was used to track the intensities of individual tdPCP-EGFP-tagged transcription sites. A particle tracking routine (Crocker and Grier, 1996) was used for finding the positions of the transcription site in each frame and linking them into a 2D trajectory. The intensity trace of tdPCP-EGFP at the transcription site was corrected for photo-bleaching using the time trace of tdPCP-EGFP in a nearby nuclear region. The auto-correlation function was calculated (for the tdPCP-EGFP fluctuation analysis), or the data were imported in Origin 8.5.0 (OriginLab) and the trace fitted to a single-exponential decay (for the transcription inhibition experiments).

Row | SMILES | Sox2 clustering at Pou5f1 upon transcription inhibition [1] | Rpb1 exponential decay time from fits [2] [s] | Hill equation n, relative MCP signal vs. [JQ1] ([3]; Pou5f1) | MCP-mNeonGreen exponential decay time [3] [s] | response of individual Pou5f1 transcription sites at intermediate inhibitor concentration ([3]; intermediate [A-485] or [JQ1]) | Pou5f1 transcription activity ([3]; upon JQ1 (FIG. 7A, 1 μM)) | Pol II signal at Pou5f1 upon transcription inhibition [2]
1 | Cc1sc2c(c1C)C(c1ccc(Cl)cc1)=N[C@@H](CC(=O)OC(C)(C)C)c1nnc(C)n1-2 [JQ1] | persists | 310 ± 123 | 1.1±0.7 | 300 ± 136 | decays to a new finite plateau; also recorded: attenuated output, without completely shutting down | abruptly abolishes | 
2 | CN1CC[C@H](c2c(O)cc(O)c3c(=O)cc(-c4ccccc4Cl)oc23)[C@H](O)C1 [flavopiridol] | persists | 347 ± 104 |  | 378 ± 193 |  |  | gradual Pol II signal loss
3 | CC(C)[C@]12O[C@H]1[C@@H]1O[C@]13[C@]1(O[C@H]1C[C@H]1C4=C(CC[C@@]13C)C(=O)OC4)[C@@H]2O [triptolide] |  | 565 ± 109 |  | 378 ± 115 |  |  | gradual Pol II signal loss
